Assay results: article PMC8860381 (Molecular Cell, 2022)

Key:
hSKI-Δarch = biological target: T1, hSKI-Δarch (Homo sapiens, UniProt Q15477); test: pyruvate kinase/lactate dehydrogenase-coupled ATPase assay; type: biochemical; settings: 10 μg/mL poly(U) RNA, 50 nM complex, 5 mM MgAc2, 50 mM KAc, pH 7.5, 37°C
T1 construct: gene SKIC2; Sf21 insect cells; 10xHis tag on TTC37 removed; with Superkiller complex protein 3 (tetratricopeptide repeat protein 37); Superkiller complex protein 8 (WD repeat-containing protein 61)
Excerpt: pyruvate kinase/lactate dehydrogenase-coupled ATPase assay on hSKI-Δarch | removal of the hSKI2 arch domain led only to a minor increase in the ATPase activity

[1] = biological target: T2, hSKI complex (hSKI-WT; hSKI2-hSKI3-hSKI8) (Homo sapiens, UniProt Q15477, V341G); test: as above; type: biochemical; settings: 10 μg/mL poly(U) RNA, 50 nM complex, 5 mM MgAc2, 50 mM KAc, pH 7.5, 37°C
T2 construct: gene SKIC2; full-length subunits co-expressed in Sf21 insect cells; 3C-cleavable 10xHis tag on TTC37 N-terminus, tag removed; with Superkiller complex protein 3 (tetratricopeptide repeat protein 37); Superkiller complex protein 8 (WD repeat-containing protein 61)

[2] = biological target: T3, hSKI complex (hSKI-WT; hSKI2-hSKI3-hSKI8) (Homo sapiens, UniProt Q15477, E424Q); test: as above; type: biochemical; settings: 10 μg/mL poly(U) RNA, 50 nM complex, 5 mM MgAc2, 50 mM KAc, pH 7.5, 37°C
T3 construct: gene SKIC2; full-length subunits co-expressed in Sf21 insect cells; 3C-cleavable 10xHis tag on TTC37 N-terminus, tag removed; with Superkiller complex protein 3 (tetratricopeptide repeat protein 37); Superkiller complex protein 8 (WD repeat-containing protein 61)

[3] = system: Nc1ncnc2c1ncn2[C@@H]1O[C@H](COP(=O)(O)OP(=O)(O)OP(=O)(O)O)[C@@H](O)[C@H]1O; test: as above; type: biochemical, Homo sapiens; settings: 10 μg/mL poly(U) RNA, 50 nM complex, 5 mM MgAc2, 50 mM KAc, pH 7.5, 37°C
[4] = biological target: hEXO10c (hEXO9 core + hDIS3L D486N) (Homo sapiens, UniProt Q8TF46;Q9Y3B2;Q13868;Q9NQT5;Q9NPD3;Q9NQT4;Q5RKV6;Q15024;Q96B26;Q06265 …, D486N); test: RNase protection (benzonase); hEXO10c alone, characteristic footprint, lane 1; Binding buffers not in material (Methods sections for RNase protection and cryo-EM sample preparation are empty); hSKI storage buffer 20 mM Hepes pH 7.5, 100 mM NaCl, 2 mM DTT; settings: protein: recombinant; tags: TwinStrep-3C on DIS3L N-terminus; copies: 1;1;1;1;1;1;1;1;1;1; label: 32P body-labelled (alpha-32P UTP); single strand

`Nc1ncnc2c1ncn2[C@@H]1O[C@H](COP(=O)(O)OP(=O)(O)OP(=O)(O)O)[C@@H](O)[C@H]1O` [ATP] was tested, and the Km (hSKI-Δarch) was 121 µM, the “inactive in ATPase assay” value [1] was “V341G substitution (hSKI-THES) and indeed found that it is inactive in ATPase assays” and the ATPase activity abolished [2] was “the ATPase activity of hSKI was abolished in the case of a mutant complex”.

For “hSKI complex (hSKI-WT; hSKI2-hSKI3-hSKI8) (Homo sapiens)”, the Km [3] was 149.4 µM and the kcat [3] was 0.685 s⁻¹.

B1: GGGC(*UC)48 RNA (ssRNA)
RNA: GGGCUCUCUCUCUCUCUCUCUCUCUCUCUCUCUCUCUCUCUCUCUCUCUCUCUCUCUCUCUCUCUCUCUCUCUCUCUCUCUCUCUCUCUCUCUCUCUCUC
B1: binds [4].
